From patent US8466172B2, “Stabilization of hypoxia inducible factor (HIF) alpha” (FibroGen, Inc., priority 2001, dated 2013)
“And” between values parts separate entries of the source, which are not always exact repeats. Identical values can stand only once.

Test system: Wistar rats, acute myocardial infarction (AMI)
Assay: Cardiac ischemia Experiment I, 4-week study after acute myocardial infarction
Format: in vivo, rat
Settings: for fractional shortening: Treated-MI
Text: Seventy adult male Wistar rats (200-250 g) were anaesthetized and subjected to left coronary artery occlusion to produce acute myocardial infarction (AMI). Nine animals were subjected to identical surgery without coronary artery ligation. Twenty-four to forty-eight hours after surgery, electrocardiogram (ECG) electrodes were applied to the paws and a 15 MHz linear probe (Acuson Corp., Mountain View Calif.) was applied to the chest to obtain short axis transthoracic echocardiography (2DE) images at the mid-papillary muscle level. The probe was moved cephalad or caudad and angulated until clear endocardial visualization of the left ventricular cavity was detected. Images were obtained using the Sequoia ultrasound system (Acuson). Animals with less than 20% fractional shortening and regional wall motion abnormality on the 2DE were randomized to treatment with compound A (n=14) or vehicle (n=12). The sham controls were also randomized to treatment with compound A (n=4) or vehicle (n=5).
Animals were treated by gavage 2 times per day for the duration of the experiment with compound A at 50 mg/kg or with vehicle alone. Serum level of drug was determined periodically to establish that treated animals received sufficient and consistent amount of drug and that the measured levels were sufficient to inhibit prolyl 4-hydroxylase, a representative 2-oxoglutarate dioxygenase.
Serial 2DE images were obtained weekly. Three short axis 2DE digital clips containing 5 or more systolic and diastolic frames were captured and stored. Two observers blinded to treatment did measurements off-line. For the measurements, the digital images were slowed and frozen at end systole and end diastole. Two systolic and two diastolic frames from each of the three digital clips were measured by consensus and averaged. The anterior wall in systole (AWS) and diastole (AWD), posterior wall in systole (PWS) and diastole (PWD), and left ventricular end systolic (LVESD) and end diastolic (LVEDD) were measured according to the American Society for Echocardiology (ASE) leading-edge method. For consistency, measurements were done from the anterior to the posterior mid points of the left ventricular cavity and were randomly repeated to ensure reproducibility (reproducibility was approximately 96%).
At four weeks of treatment, in vivo hemodynamic measurements were determined, as described below, both before and after infusion (0.2 ml over 1 minute) of […] isoproterenol via the femoral vein. Hearts were then excised and weighed as described below.
To collect in vivo hemodynamic measurements, animals were anaesthetized and the right carotid artery was dissected free from surrounding tissues and canulated with an SPR-671 ultra-miniature pressure transducer (Millar Instruments, Inc., Houston Tex.). The catheter was then advanced into the left ventricle. After steady state was established, baseline heart rate (HR), developed pressure (DP), contractile index (CI), left ventricle systolic pressure (SBP) and end diastolic pressure (LVEDP), and maximal rate of pressure rise and fall (+dP/dt and −dP/dt, respectively) were recorded.
Following hemodynamic measurement, hearts were excised and weighed. Pieces of scarred myocardium, and right ventricle and left ventricle myocardium distant from the site of infarct were dissected out and weighed. Hydroxyproline and proline were determined by the method of Palmerini et al. (1985, J Chromatogr 339:285-92) except that L-azetidine-2-carboxylic acid (Sigma-Aldrich) was substituted for 3,4-dehydroproline as the internal standard.

O=C(O)c1c[nH]c2c(ccc3cccnc32)c1=O [Compound A, 4-oxo-1,4-dihydro-[1,10]phenanthroline-3-carboxylic acid]
Hydroxyproline/proline in infarct scar (4 weeks post-MI): 0.34 ± 0.08
Hydroxyproline/proline in non-infarct left ventricular myocardium (4 weeks post-MI): 0.12 ± 0.06
Hydroxyproline/proline in non-infarct right ventricular myocardium (4 weeks post-MI): 0.13 ± 0.02
+dP/dt (4 weeks post-MI, baseline): 9477 ± 581 mm Hg/sec
Developed pressure (4 weeks post-MI, baseline): 133 ± 6 mm Hg
Systolic BP (4 weeks post-MI, baseline): 143 ± 7 mm Hg
−dP/dt (4 weeks post-MI, baseline): 9978 ± 827 mm Hg/sec
+dP/dt (4 weeks post-MI, isoproterenol): 16830 ± 1195 mm Hg/sec
Developed pressure (4 weeks post-MI, isoproterenol): 121 ± 9 mm Hg
Systolic BP (4 weeks post-MI, isoproterenol): 130 ± 9 mm Hg
−dP/dt (4 weeks post-MI, isoproterenol): 9234 ± 703 mm Hg/sec
fractional shortening (week 0 (baseline)): 10% and 10 ± 0.8%
fractional shortening (week 1): 17 ± 1%
fractional shortening (week 2): 20% and 20 ± 2%
fractional shortening (week 3): 21 ± 2%
fractional shortening (week 4): 21 ± 3%
increase in fractional shortening relative to baseline (week 2): 79%
